Reference: ChEMBL document CHEMBL5696439 (Cancer Res, 2010)
The source made the active and inactive calls. The calls are words filed in the database; no cut-off is given here.

How the values were obtained:
[1] = target: Aurora kinase A (Homo sapiens) (UniProt O14965); assay: Inhibition of recombinant human full-length His-tagged AURKA expressed in insect cells at 2 uM using Ser/Thr 01 as substrate measured after 1 hr by Z'-LYTE assay relative to control; conditions: Insect cell
[2] = target: Cytoplasmic tyrosine-protein kinase BMX (Homo sapiens) (UniProt P51813); assay: Inhibition of recombinant human full-length His-tagged BMX expressed in insect cells at 2 uM using Tyr 01 as substrate measured after 1 hr by Z'-LYTE assay relative to control; conditions: Insect cell
[3] = target: Calcium/calmodulin-dependent protein kinase type 1D (Homo sapiens) (UniProt Q8IU85); assay: Inhibition of recombinant human full-length His-tagged CAMK1D expressed in insect cells at 2 uM using Ser/Thr 25 as substrate measured after 1 hr by Z'-LYTE assay relative to control; conditions: Insect cell
[4] = target: Casein kinase I isoform gamma-1 (Homo sapiens) (UniProt Q9HCP0); assay: Inhibition of recombinant human full-length GST-tagged CSNK1G1 expressed in insect cells at 2 uM using Ser/Thr 05 as substrate measured after 1 hr by Z'-LYTE assay relative to control; conditions: Insect cell
[5] = target: Death-associated protein kinase 3 (Homo sapiens) (UniProt O43293); assay: Inhibition of recombinant human full-length GST-tagged DAPK3 expressed in insect cells at 2 uM using Ser/Thr 13 as substrate measured after 1 hr by Z'-LYTE assay relative to control; conditions: Insect cell
Sequence of Death-associated protein kinase 3 (Homo sapiens) (O43293 whole entry, looked up, the tested form may be a part): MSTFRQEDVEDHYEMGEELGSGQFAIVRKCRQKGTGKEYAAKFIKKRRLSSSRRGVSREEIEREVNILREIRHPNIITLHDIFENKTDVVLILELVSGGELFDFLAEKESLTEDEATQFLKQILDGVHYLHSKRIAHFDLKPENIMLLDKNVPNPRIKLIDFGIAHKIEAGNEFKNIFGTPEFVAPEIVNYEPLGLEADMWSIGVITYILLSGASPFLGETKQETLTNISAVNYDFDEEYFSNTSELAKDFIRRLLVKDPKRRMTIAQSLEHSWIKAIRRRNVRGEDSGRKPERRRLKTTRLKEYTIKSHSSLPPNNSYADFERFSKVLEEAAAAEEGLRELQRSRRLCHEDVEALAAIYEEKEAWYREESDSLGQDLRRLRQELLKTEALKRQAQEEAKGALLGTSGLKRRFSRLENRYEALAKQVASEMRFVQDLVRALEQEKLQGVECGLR

[6] = target: Epidermal growth factor receptor (Homo sapiens) (UniProt P00533); assay: Inhibition of recombinant human GST-tagged EGFR (668-1210 residues) expressed in insect cells at 2 uM using Tyr 04 as substrate measured after 1 hr by Z'-LYTE assay relative to control; conditions: Insect cell
Sequence of Epidermal growth factor receptor (Homo sapiens) (P00533 whole entry, the tested form may be a part): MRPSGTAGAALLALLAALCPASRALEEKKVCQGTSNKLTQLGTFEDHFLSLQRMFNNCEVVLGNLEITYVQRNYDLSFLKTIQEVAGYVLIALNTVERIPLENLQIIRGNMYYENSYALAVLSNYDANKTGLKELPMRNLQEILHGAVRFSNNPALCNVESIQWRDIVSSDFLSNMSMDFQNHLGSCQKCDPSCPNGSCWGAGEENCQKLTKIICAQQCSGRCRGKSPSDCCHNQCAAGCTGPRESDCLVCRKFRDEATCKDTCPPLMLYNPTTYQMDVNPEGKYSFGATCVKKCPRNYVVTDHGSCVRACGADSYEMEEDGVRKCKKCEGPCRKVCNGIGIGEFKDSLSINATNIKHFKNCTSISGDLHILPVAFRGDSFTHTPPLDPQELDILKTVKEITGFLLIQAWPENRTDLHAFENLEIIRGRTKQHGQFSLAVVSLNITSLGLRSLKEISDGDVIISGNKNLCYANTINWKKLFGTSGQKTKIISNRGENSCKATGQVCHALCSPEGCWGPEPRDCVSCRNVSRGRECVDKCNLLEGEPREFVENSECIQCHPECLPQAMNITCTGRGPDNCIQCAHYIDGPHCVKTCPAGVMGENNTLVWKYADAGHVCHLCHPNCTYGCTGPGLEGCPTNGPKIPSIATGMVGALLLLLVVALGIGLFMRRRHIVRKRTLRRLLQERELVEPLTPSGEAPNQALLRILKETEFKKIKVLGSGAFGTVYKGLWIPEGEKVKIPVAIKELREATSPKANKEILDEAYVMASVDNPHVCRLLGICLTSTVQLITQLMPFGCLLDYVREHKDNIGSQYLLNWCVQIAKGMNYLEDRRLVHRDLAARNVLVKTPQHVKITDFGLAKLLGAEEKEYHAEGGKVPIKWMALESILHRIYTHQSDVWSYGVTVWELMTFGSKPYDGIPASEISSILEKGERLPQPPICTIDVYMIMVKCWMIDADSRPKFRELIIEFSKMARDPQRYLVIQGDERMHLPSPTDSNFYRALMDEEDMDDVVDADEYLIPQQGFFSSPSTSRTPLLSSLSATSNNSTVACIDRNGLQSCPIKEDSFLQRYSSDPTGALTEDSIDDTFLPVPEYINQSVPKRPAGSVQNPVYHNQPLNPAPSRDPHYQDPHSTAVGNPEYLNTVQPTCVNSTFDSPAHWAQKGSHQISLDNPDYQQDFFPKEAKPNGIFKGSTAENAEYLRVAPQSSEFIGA

[7] = system: Epidermal growth factor receptor (Homo sapiens), P00533 [L861Q]; assay: Inhibition of recombinant human GST-tagged EGFR L861Q mutant (668-1210 residues) expressed in insect cells at 2 uM using Tyr 04 as substrate measured after 1 hr by Z'-LYTE assay relative to control; conditions: Insect cell
Sequence of Epidermal growth factor receptor (Homo sapiens), P00533 [L861Q] (P00533 whole entry L861Q, the tested form may be a part): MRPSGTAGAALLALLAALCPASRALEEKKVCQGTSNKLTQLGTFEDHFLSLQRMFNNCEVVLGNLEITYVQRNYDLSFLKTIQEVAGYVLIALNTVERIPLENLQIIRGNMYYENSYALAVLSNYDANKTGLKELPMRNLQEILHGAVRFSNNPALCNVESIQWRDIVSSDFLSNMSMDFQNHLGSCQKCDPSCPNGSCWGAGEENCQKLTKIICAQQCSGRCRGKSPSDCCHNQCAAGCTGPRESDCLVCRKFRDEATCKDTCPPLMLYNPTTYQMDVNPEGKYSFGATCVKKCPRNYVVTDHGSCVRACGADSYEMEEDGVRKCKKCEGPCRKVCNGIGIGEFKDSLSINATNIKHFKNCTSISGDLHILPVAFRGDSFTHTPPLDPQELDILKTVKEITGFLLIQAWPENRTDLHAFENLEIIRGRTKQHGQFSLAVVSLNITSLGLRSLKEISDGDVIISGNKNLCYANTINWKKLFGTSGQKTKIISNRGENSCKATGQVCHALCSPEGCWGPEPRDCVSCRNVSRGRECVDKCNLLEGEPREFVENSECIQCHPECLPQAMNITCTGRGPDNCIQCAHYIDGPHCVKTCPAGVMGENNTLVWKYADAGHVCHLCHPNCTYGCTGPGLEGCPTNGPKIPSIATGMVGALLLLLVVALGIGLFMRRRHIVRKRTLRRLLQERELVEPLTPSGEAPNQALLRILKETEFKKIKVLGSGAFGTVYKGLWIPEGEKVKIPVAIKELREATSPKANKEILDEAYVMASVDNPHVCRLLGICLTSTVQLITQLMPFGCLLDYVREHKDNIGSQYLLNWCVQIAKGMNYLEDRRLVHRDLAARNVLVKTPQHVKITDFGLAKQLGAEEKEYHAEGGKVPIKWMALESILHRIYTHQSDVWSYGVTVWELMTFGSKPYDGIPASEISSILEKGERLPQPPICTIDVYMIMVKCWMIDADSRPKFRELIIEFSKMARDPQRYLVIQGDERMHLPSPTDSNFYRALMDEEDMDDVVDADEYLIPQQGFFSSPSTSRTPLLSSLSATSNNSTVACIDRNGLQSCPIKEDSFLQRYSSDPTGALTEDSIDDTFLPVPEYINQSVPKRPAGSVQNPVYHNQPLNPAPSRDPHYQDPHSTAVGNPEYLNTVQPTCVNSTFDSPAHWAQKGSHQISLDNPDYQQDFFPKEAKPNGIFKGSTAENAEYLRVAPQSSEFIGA

[8] = target: Fibroblast growth factor receptor 2 (Homo sapiens) (UniProt P21802); assay: Inhibition of recombinant human His-tagged FGFR2 (403-822 residues) expressed in baculovirus expression system at 2 uM using Tyr 04 as substrate measured after 1 hr by Z'-LYTE assay relative to control
[9] = target: Mitogen-activated protein kinase 13 (Homo sapiens) (UniProt O15264); assay: Inhibition of recombinant human full length His-tagged MAPK13 expressed in baculovirus expression system at 2 uM using Ser/Thr 03 as substrate measured after 1 hr by Z'-LYTE assay relative to control
Sequence of Mitogen-activated protein kinase 13 (Homo sapiens) (O15264 whole entry): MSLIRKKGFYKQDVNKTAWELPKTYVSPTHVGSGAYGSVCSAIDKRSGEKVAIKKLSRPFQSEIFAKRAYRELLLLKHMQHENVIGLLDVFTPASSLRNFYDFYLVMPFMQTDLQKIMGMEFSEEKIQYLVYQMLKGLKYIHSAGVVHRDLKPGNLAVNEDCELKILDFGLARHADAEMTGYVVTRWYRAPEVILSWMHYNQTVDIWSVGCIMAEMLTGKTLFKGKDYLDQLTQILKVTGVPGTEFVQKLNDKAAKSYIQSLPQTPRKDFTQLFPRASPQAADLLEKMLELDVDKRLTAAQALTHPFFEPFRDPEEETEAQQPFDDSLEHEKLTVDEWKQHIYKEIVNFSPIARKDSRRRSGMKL

[10] = target: Mitogen-activated protein kinase 14 (Homo sapiens) (UniProt Q16539); assay: Inhibition of recombinant human full length GST-tagged MAPK14 expressed in E. coli at 2 uM using Ser/Thr 04 as substrate measured after 1 hr by Z'-LYTE assay relative to control
[11] = target: MAP kinase-activated protein kinase 3 (Homo sapiens) (UniProt Q16644); assay: Inhibition of recombinant human full length His-tagged MAPKAPK3 expressed in baculovirus expression system at 2 uM using Ser/Thr 04 as substrate measured after 1 hr by Z'-LYTE assay relative to control
[12] = target: Serine/threonine-protein kinase Nek7 (Homo sapiens) (UniProt Q8TDX7); assay: Inhibition of recombinant human His-tagged NEK7 (8-313 residues) expressed in insect cells at 2 uM using Ser/Thr 22 as substrate measured after 1 hr by Z'-LYTE assay relative to control; conditions: Insect cell
[13] = target: Serine/threonine-protein kinase pim-2 (Homo sapiens) (UniProt Q9P1W9); assay: Inhibition of recombinant human full length GST-tagged PIM2 expressed in insect cells at 2 uM using Ser/Thr 07 as substrate measured after 1 hr by Z'-LYTE assay relative to control; conditions: Insect cell
[14] = target: Protein kinase C beta type (Homo sapiens) (UniProt P05771); assay: Inhibition of recombinant human full length GST-tagged PRKCB1 expressed in baculovirus expression system at 2 uM using Ser/Thr 07 as substrate measured after 1 hr by Z'-LYTE assay relative to control
Sequence of Protein kinase C beta type (Homo sapiens) (P05771 2-671 limits assumed): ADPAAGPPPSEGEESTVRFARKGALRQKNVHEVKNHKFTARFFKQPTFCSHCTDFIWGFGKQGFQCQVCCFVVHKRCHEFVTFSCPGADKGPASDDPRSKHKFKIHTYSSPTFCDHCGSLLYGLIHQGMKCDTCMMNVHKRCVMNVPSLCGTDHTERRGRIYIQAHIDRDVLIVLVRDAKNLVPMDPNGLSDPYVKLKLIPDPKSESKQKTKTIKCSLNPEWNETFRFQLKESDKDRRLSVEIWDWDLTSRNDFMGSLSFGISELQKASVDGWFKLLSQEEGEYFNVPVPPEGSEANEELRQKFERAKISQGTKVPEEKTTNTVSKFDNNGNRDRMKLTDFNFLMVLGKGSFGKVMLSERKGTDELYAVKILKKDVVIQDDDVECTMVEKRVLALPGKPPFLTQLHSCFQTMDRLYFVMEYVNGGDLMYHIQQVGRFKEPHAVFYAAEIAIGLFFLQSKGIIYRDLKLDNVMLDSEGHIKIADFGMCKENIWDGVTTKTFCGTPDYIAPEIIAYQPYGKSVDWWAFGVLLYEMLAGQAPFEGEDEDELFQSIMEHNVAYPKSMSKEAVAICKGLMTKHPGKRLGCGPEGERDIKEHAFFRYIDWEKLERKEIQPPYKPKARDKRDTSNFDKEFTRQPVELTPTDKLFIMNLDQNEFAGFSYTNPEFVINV

[15] = target: Protein kinase C beta type (Homo sapiens) (UniProt P05771); assay: Inhibition of recombinant human full length GST-tagged PRKCB2 expressed in insect cells at 2 uM using Ser/Thr 07 as substrate measured after 1 hr by Z'-LYTE assay relative to control; conditions: Insect cell
[16] = Inhibition of recombinant human GST-tagged ROCK1 (1-552 residues) expressed in insect cells at 2 uM using Ser/Thr 13 as substrate measured after 1 hr by Z'-LYTE assay relative to control; conditions: Insect cell, condition cancer
[17] = target: Ribosomal protein S6 kinase alpha-6 (Homo sapiens) (UniProt Q9UK32); assay: Inhibition of recombinant human full length GST-tagged RPS6KA6 expressed in insect cells at 2 uM using Ser/Thr 20 as substrate measured after 1 hr by Z'-LYTE assay relative to control; conditions: Insect cell
Sequence of Ribosomal protein S6 kinase alpha-6 (Homo sapiens) (Q9UK32 whole entry): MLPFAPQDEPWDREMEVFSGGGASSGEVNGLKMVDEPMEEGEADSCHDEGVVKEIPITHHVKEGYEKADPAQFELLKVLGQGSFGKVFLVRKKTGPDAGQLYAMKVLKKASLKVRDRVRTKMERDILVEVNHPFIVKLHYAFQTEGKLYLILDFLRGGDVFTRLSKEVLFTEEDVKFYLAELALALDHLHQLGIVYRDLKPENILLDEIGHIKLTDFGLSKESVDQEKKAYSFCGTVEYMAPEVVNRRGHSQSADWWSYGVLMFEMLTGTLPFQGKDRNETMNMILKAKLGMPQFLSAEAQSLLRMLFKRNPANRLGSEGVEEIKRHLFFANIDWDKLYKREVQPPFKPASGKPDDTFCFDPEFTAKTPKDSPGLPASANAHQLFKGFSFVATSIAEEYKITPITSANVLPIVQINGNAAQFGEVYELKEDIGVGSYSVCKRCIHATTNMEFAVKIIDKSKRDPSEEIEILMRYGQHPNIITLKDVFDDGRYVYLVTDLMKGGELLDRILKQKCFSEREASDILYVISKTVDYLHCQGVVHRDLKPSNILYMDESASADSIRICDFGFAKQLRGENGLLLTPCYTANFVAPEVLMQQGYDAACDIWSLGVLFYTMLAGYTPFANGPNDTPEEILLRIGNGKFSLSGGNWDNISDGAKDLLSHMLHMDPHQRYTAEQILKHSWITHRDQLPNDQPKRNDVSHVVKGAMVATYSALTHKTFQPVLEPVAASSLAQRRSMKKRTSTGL

[18] = target: Serine/threonine-protein kinase TBK1 (Homo sapiens) (UniProt Q9UHD2); assay: Inhibition of recombinant human full length GST-tagged TBK1 expressed in insect cells at 2 uM using Ser/Thr 05 as substrate measured after 1 hr by Z'-LYTE assay relative to control; conditions: Insect cell
U-87 MG = assay: Antiproliferative activity against human U-87MG cells assessed as cell growth inhibition at 10 micromol/L incubated for 3 days by MTS assay relative to control; type: functional, U-87MG ATCC; conditions: 72 h, dose 10 µmol/L, time 3 day
MDA-MB-361 [19] = assay: Antiproliferative activity against human MDA-MB-361 cells assessed as cell growth inhibition incubated for 2 days by MTS assay; type: functional, cell-based; conditions: MDA-MB-361, 48 h
MDA-MB-468 = assay: Induction of apoptosis in human MDA-MB-468 cells assessed as increase in G1 phase at 1 micromol/L incubated for 24 hrs by FACS analysis; type: functional, cell-based; conditions: dose 1.0 µmol/L
MDA-MB-361 [20] = assay: Induction of apoptosis in PI3K/mTOR hyperactive human MDA-MB-361 cells assessed as cell death at 0.001 to 100 micromol/L incubated for 24 hrs by FACS analysis; type: functional, cell-based; conditions: dose 0.001-100 µmol/L
MDA-MB-361 [21] = assay: Inhibition of protein synthesis in human MDA-MB-361 cells at 1 micromol/L incubated for 3 hrs by [3H] methionine incorporation based scintillation counter analysis relative to control; type: functional; conditions: MDA-MB-361, 3 h, dose 1 µmol/L
mTORC2 (Homo sapiens) [22] = target: T1, mTORC2 (Homo sapiens) (UniProt P42345+Q6R327+Q9BVC4+Q9BPZ7); conditions: U-87 MG, dose 0.025-2 µmol/L, time 6.0 hrs
mTORC2 (Homo sapiens) [23] = target: T1, mTORC2 (Homo sapiens); conditions: U-87 MG, dose 0.025-2 µmol/L, time 6.0 hrs; remark: listed apart in the source
mTORC2 (Homo sapiens) [24] = target: T1, mTORC2 (Homo sapiens); conditions: U-87 MG, dose 0.025-2 µmol/L, time 6.0 hrs; remark: listed apart in the source

Sequence of Aurora kinase A (Homo sapiens) (O14965 whole entry): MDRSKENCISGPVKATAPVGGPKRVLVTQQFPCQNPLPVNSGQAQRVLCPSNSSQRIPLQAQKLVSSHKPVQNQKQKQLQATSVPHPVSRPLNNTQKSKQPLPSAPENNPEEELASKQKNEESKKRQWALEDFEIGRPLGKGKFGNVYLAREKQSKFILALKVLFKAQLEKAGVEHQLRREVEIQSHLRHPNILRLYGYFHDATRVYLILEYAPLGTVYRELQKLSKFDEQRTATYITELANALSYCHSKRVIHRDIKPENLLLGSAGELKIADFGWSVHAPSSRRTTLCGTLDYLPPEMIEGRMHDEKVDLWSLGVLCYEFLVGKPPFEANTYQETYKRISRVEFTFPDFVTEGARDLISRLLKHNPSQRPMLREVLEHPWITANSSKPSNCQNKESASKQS

Compound: CNC(=O)Nc1ccc(-c2nc(N3CC4CCC(C3)O4)c3cnn(C4CCC5(CC4)OCCO5)c3n2)cc1
- inhibition [1]: 0%
- inhibition [2]: 10%
- inhibition [3]: 0%
- inhibition [4]: -2%
- inhibition [5]: 2%
- inhibition [6]: 1%
- inhibition [7]: -1%
- inhibition [8]: 4%
- inhibition [9]: 4%
- inhibition [10]: 11%
- inhibition [11]: 1%
- inhibition [12]: -3%
- inhibition [13]: 3%
- inhibition [14]: 11%
- inhibition [15]: 9%
- inhibition at 2 µM [16]: 5%
- inhibition [17]: 12%
- inhibition [18]: 2%
- inhibition at 10 µM (U-87 MG): 100%
- IC50 (MDA-MB-361 [19]): 50 nM
- Activity (MDA-MB-468): Active
- Activity (MDA-MB-361 [20]): Active
- inhibition at 1 µM (MDA-MB-361 [21]): ~50%
- inhibition (mTORC2 (Homo sapiens) [22]): inactive
- inhibition (mTORC2 (Homo sapiens) [23]): Active
- inhibition (mTORC2 (Homo sapiens) [24]): Active
